Results as given in patent US10550383B2, “Galvanotaxis assay for quantitative assessment of the metastatic potential of cancer cells” (Ohio State Innovation Foundation, priority 2013, dated 2020).

Columns and labels:
Assay type in all cases: cell-based, human
[1] = test system: SCP2 cells; experiment: modified transmembrane assay, chemotaxis of SCP2 cells; settings: 100 ng/mL in lower chamber, 8 hours, no induced electric field; Control vs SDF control p=0.015, Control vs EGF control p=0.001 (FIG. 4)
Procedure: Highly metastatic breast cancer cells known as SCP2, a single cell population derived from MDA-MB-231 that is known to metastasize to the bone, were cultured in Dulbecco's Modified Eagle Medium (DMEM; Life Technologies, Gaithersburg, Md., USA), supplemented with 10% heat inactivated fetal bovine serum (FBS), 5 U/mL penicillin, and 5 mg/mL streptomycin. The SCP2 cells were placed in the upper chamber, and both compartments contained 0.1% FBS-DM. The entire apparatus (holder, coil, modified transmembrane chambers with Transwell inserts and cells) was placed in a 37° C. culture incubator with humidified air containing 5% CO2. The leads of the coil were connected to the function generator placed outside the incubator. The cells were allowed to migrate for 8 hours, and then were fixed and stained using Hema-3 stain kit according to the manufacturer's instructions. The number of migratory cells per membrane was then measured using light microscopy by counting the total number of cells in each of five contiguous images spanning radially outward (five fields) from the coil (FIG. 9). […]
In one embodiment, low passage SCP2 cells were cultured in Dulbecco's Modified Eagle's Media (DMEM) containing 10% fetal bovine serum (FBS) and 5 U/mL penicillin, and 5 mg/mL streptomycin at 37° C. in a humidified culture incubator supplied with 5% CO2. […] The cells were counted using a hemocytometer. […]

[2] = test system: SCP2 cells; experiment: visualization of actin filaments by phalloidin staining and fluorescence microscopy; settings: EGF 100 ng/mL, one hour, no induced electric field (FIG. 6a middle panel)
Procedure: The present invention allows the visualization of actin filaments that form the cytoskeleton of the SCP2 cells and play a crucial role in cell migration, when induced electric fields are applied in a non-contact manner as described earlier (FIG. 6). The images are quantified to determine the actin filament distribution within the cell as represented by the fluorescence intensity. In one embodiment, SCP2 cells are plated on a single-well, 60 mm diameter culture plate, allowed to migrate freely for an hour, and then fixed and stained with phalloidin-fluorophore conjugate for visualization of the actin filaments (FIG. 6a, left panel). […] These images have also been quantified after importing into MATLAB (FIGS. 18-20). […]
Analysis of actin filament distribution: images obtained from phalloidin and fluorescence microscopy are imported into MATLAB (2014a, Mathworks, Inc., Massachusetts, U.S.A.). […] Intensities are then separated into red, green, and blue so that the background and nuclei intensities may be filtered out and only the green fluorescence from the actin filaments is extracted. Actin fluorescence intensities are analyzed versus cell length (longer dimension being the length), and averaged.

[3] = test system: MCF-10A cells; experiment: modified transmembrane assay, migration of MCF-10A cells; settings: 50 ng/mL EGF in lower chamber, 16 hours, no induced electric field (-E+EGF, FIG. 22)
Procedure: Weak a.c. electric fields hinder chemotaxis of “normal” breast epithelial cells. Experiments on combined chemotaxis and electrotaxis were performed with MCF10A cells in the same modified transmembrane assay in order to examine the effects of the induced a.c. electric field in hindering chemotaxis of non-transformed cells. MCF-10A cells are a non-transformed epithelial cell line derived from human fibrocystic mammary tissue. These cells are considered “normal” breast epithelial cells as they have a karyotype that is nearly diploid, are dependent on externally supplied growth factors for migration, and lack the ability to form tumors in nude mice. The growth factor EGF was used as an exogenous agent to induce MCF-10A cells to migrate in the modified transmembrane assay, as in the case of the SCP2 cells. No migration of MCF-10A cells was observed without EGF in the bottom chamber. […]
In one embodiment, MCF10A cells were cultured in Dulbecco's Modified Eagle's Media (DMEM) F12 containing 5% horse serum (HS), 20 ng/ml epidermal growth factor (EGF), 0.5 mg/ml hydrocortisone, 100 ng/ml cholrea toxin, 10 μg/ml insulin and 5 U/mL penicillin, and 5 mg/mL streptomycin at 37° C. in a humidified culture incubator supplied with 5% CO2. […] After allowing migration for 16 hours, cells were stained, photographed and counted as described for the preparation of the SCP2 cells. […]

| Substance | migration of SCP2 cells (chemotaxis) versus control [1] | actin filament polymerization in SCP2 cells [2] | migration of MCF-10A cells [3] |
| --- | --- | --- | --- |
| EGF: growth factor placed in the lower chamber to induce cell migration | chemotaxis is well enabled | polymerization of actin filaments can be observed at one end of some cells | strongly promotes migration |
| SDF-1α | chemotaxis is well enabled |  |  |
